In the NIST ThermoML archive (doi:10.1016/j.jct.2019.04.010):

Assays:
[1] = xn = mol fraction of the nth substance listed; conditions: 100 kPa, Liquid, x2 = 0; for viscosity: Concentric cylinders viscometry; for mass density: Vibrating tube method
[2] = 100 kPa, Liquid; for viscosity: Concentric cylinders viscometry; for mass density: Vibrating tube method

CC(C)O [propan-2-ol] + CCCCn1cc[n+](C)c1.O=[N+]([O-])[O-]
[1]
Conditions | mass density [kg/m3] | viscosity [mPa·s]
293.15 K | 785.4 | 2.42
298.15 K | 781.1 | 2.08
303.15 K | 776.8 | 1.8
308.15 K | 772.4 | 1.56
313.15 K | 768 | 1.36
318.15 K | 763.4 | 1.19
323.15 K | 758.8 | 1.05

CCC(C)O (stereo unspecified) [butan-2-ol] + CCCCn1cc[n+](C)c1.O=[N+]([O-])[O-]
[1]
Conditions | mass density [kg/m3] | viscosity [mPa·s]
293.15 K | 806.7 | 3.67
298.15 K | 802.7 | 3.04
303.15 K | 798.4 | 2.54
308.15 K | 794.1 | 2.13
313.15 K | 789.8 | 1.8
318.15 K | 785.2 | 1.54
323.15 K | 780.6 | 1.33

CCCCn1cc[n+](C)c1.O=[N+]([O-])[O-] [1-butyl-3-methylimidazolium nitrate]
[2]
Conditions | mass density [kg/m3] | viscosity [mPa·s]
293.15 K | 1158.3 | 223.54
298.15 K | 1155.2 | 168.97
303.15 K | 1152.3 | 125.36
308.15 K | 1149.3 | 96.74
313.15 K | 1146.5 | 75.12
318.15 K | 1143.8 | 56.28
323.15 K | 1141.2 | 45.17

CCCC(C)O (stereo unspecified) [pentan-2-ol] + CCCCn1cc[n+](C)c1.O=[N+]([O-])[O-]
[1]
Conditions | mass density [kg/m3] | viscosity [mPa·s]
293.15 K | 809.3 | 3.97
298.15 K | 805.3 | 3.32
303.15 K | 801.2 | 2.81
308.15 K | 797 | 2.37
313.15 K | 792.7 | 1.99
318.15 K | 788.4 | 1.66
323.15 K | 784 | 1.39
